Results: publication PMC11784013, “Potassium molybdate blocks APN-dependent coronavirus entry by degrading receptor via PIK3C3-mediated autophagy” (Journal of Virology, 2024)

What was measured:
APN = experiment: Pathway inhibitor screen on PM-induced APN degradation in ST cells (western blot); assay type: cell-based, porcine; conditions: PM 10 mM, 16 h, 3-MA 20 mM
Description: Fig 6 PM degrades APN by autophagy-lysosome pathway. (A) ST cells were treated with PM (10 mM) and infected with TGEV (0.1 MOI) in the presence and absence of MG132 (20 µM), 3-MA (20 mM), and Z-VAD-FMK (20 µM) for 16 h. The APN expression and TGEV N were detected by western blot. (B) ST cells were treated with PM (10 mM) at 2, 4, 8, and 16 h, autophagy markers P62 and LC3, and APN were measured by western blot. (C) ST cells were transfected with RFP-EGFP-LC3B for 12 h and then treated with PM (10 mM) or H2O for 36 h. The fluorescence of GFP and RFP was detected by confocal microscopy, scale bar: 5 µm. (D) Quantification of autophagosomes (Merge) and autolysosomes (RFP) from C using Image J software. (E) ST cells were treated with PM or H2O for 24 h. The autophagosomes (yellow arrow) and autolysosomes (asterisk) were detected by transmission electron microscope, scale bar: 2 µm. (F) The number of autophagosomes (yellow arrow) and autolysosomes (asterisk) was quantified. All western blot results were calculated by Image J. Results are presented as mean ± SD of data from three independent experiments. ***, P ≤ 0.001.
Fig 7 PM degrades APN expression via activating PIK3C3-mediated autophagy. (A) Graphical representation for autophagy and the targets of different autophagy inhibitors. (B) ST cells were treated with PM (10 mM) in the presence and absence of 3-MA (20 mM), SBI0206965 (20 µM), and 3BDO (30 µM) for 16 h, and the APN expression was detected by western blot. (C) ST cells were treated with PM (10 mM) in the presence and absence of 3-MA (20 mM) for 16 h, and the APN, PIK3C3, ATG14, BECN1, P62, and LC3 were measured by western blot. (D) ST cells were transfected with PIK3C3 siRNA-1, PIK3C3 siRNA-2, PIK3C3 siRNA-3, PIK3C3 siRNA-4, and NC siRNA for 24 h, the PIK3C3 expression was detected by western blot. (E) ST cells were transfected with PIK3C3 siRNA-4 or NC siRNA for 24 h and then treated with PM (10 mM) for 16 h. The APN, PIK3C3, ATG14, BECN1, P62, and LC3 were detected by western blot. (F) Sequencing diagram for WT ST cells and PIK3C3 KO ST cells. (G) PIK3C3 was detected by western blot in WT ST cells and PIK3C3 KO ST cells. (H) WT ST cells and PIK3C3 KO ST cells were treated with PM (10 mM) for 16 h and then the APN, PIK3C3, ATG14, BECN1, P62, and LC3 were detected by western blot. (I) WT ST cells and PIK3C3 KO ST cells were transfected with pCMV-Myc and pCMV-Myc-PIK3C3, respectively, for 24 h and treated with PM (10 mM) for 16 h. The APN, PIK3C3, P62, and LC3 were detected by western blot. All western blot results were calculated by Image J. All experiments were performed in triplicate.

TGEV Miller = experiment: TGEV infection of ST cells (RT-qPCR, TCID50, western blot, IFA); assay type: cell-based, transmissible gastroenteritis virus; conditions: TGEV Miller 0.1 MOI, indicated concentrations, 1 h pretreatment and 17 h
Description: Fig 1 PM inhibits TGEV and PRCV infection in ST cells. (A) A cytotoxicity assay of PM in ST cells. ST cells cultured in a 96-well plate were incubated with different concentrations of PM for 24 h, which was tested by Cell Counting Kit 8. (B) Time course for PM inhibiting TGEV or PRCV or PEDV infection assay. (C–F) The ST cells, pretreated with PM at the indicated concentrations for 1 h were infected with TGEV Miller (0.1 MOI) or PRCV (0.1 MOI) for 1 h and were again treated with PM at 37°C for 17 h. The cell samples were collected and examined by real-time quantitative PCR (RT-qPCR), TCID50, western blot (C and D), and immunofluorescence assay (IFA) (E and F), scale bar: 50 µm. (G) Vero-E6 cells were treated with indicated PM and infected with PEDV LJX 01/2014 according to the time course of Fig. 1B, which was detected by TCID50 and western blot. Results are presented as mean ± SD of data from three independent experiments. ns, no significant; **, P ≤ 0.01; ***, P ≤ 0.001.
Fig 3 PM inhibits TGEV and PRCV infection by potassium ion and molybdate synergy. […] The cell samples were measured by RT-qPCR. (C and D) ST cells were treated with PM (K2MoO4, 10 mM), KCl (20 mM), Na2MoO4 (10 mM), sodium chloride (NaCl, 10 mM), K2MoO4 (10 mM), and NaCl (20 mM) as well as Na2MoO4 (10 mM) and KCl (20 mM) for 1 h and then infected with TGEV Miller (0.1 MOI) or PRCV (0.1 MOI) for 17 h, which was determined by RT-qPCR and TCID50. […]
Total RNA was extracted using RNAiso reagent (TaKaRa, Japan, 9109) and reverse transcribed into cDNA using HiScript Q RT SuperMix for qPCR (Vazyme, China, R223-01), both of which followed the manufacturer’s recommendations. The TGEV and PRCV virus copy numbers were detected by the TaqMan probe-based RT-qPCR method developed previously in our laboratory ([59]). Relative qPCR was also performed using ChamQ SYBR qPCR master mix (Vazyme, China, Q311-02), and the results were calculated via the 2^-ΔΔCT method.

[1] = no virus, SBI0206965 20 µM, 3BDO 30 µM

| Compound | reversal of PM-induced APN degradation (APN; [1]) | reversal of PM-induced APN degradation (APN; TGEV 0.1 MOI, MG132 20 µM, Z-VAD-FMK 20 µM) | TGEV infection, single salt (TGEV Miller) |
| --- | --- | --- | --- |
| Cn1cnc(N)c2ncnc1-2 [3-MA, 3-Methyladenine] | reversed the changes in APN expression | reversed | – |
| O=C1OC(COc2ccccc2[N+](=O)[O-])CC1Cc1ccccc1 (stereo not drawn) [3BDO] | cannot abolish the degradation of APN | – | – |
| CNC(=O)c1ccccc1Oc1nc(Nc2cc(OC)c(OC)c(OC)c2)ncc1Br [SBI0206965] | cannot abolish the degradation of APN | – | – |
| [Cl-].[K+] [potassium chloride] | – | – | neither potassium chloride nor sodium molybdate was able to suppress TGEV infection |
| [Na+].[Na+].[O]=[Mo](=[O])([O-])[O-] [sodium molybdate] | – | – | neither potassium chloride nor sodium molybdate was able to suppress TGEV infection |
